Laboratory results published in patent US7557110B2, “Pyrazolo[1,5-A] pyrimidine derivatives” (Teijin Pharma Limited, priority 2003, dated 2009).
Like-named read-outs stand apart in the source and are kept apart here.

Tests used:
CDK-2 = CDK-2 (Homo sapiens, UniProt P24941); test: CDK-2 enzyme activity inhibition (33P-ATP filter plate kinase assay); type: biochemical
Text: [General Procedure for Measurement of CDK-2 Enzyme Activity Inhibition]

MAPKAP-K2 = MAPKAP-K2 (Homo sapiens, UniProt P49137); test: MAPKAP-K2 enzyme activity inhibition (33P-ATP filter plate kinase assay); type: biochemical; details: MAPKAP-K2 inhibitory activity; assays conducted at typically 1-100 μM; note: key: +: active; ++: more active; +++: very active
[1] = read-out: CDK-2 inhibition IC50

Sequence of MAPKAP-K2 (P49137 whole entry): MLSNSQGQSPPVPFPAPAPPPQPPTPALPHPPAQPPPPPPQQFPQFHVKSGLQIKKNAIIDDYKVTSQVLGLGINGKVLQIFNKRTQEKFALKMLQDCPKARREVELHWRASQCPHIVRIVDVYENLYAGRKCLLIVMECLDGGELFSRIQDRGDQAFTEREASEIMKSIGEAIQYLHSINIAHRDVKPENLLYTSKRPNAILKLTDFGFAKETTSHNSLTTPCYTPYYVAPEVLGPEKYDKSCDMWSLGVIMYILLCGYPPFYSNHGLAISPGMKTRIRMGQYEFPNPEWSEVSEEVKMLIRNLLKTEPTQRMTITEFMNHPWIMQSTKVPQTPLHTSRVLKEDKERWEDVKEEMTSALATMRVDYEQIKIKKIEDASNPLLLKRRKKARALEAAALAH

SMILES | IC50 (CDK-2; [1]) | melting point | activity (efficacy against MAPKAP-K2) (MAPKAP-K2) | IC50 (CDK-2)
Cc1nn2c(Nc3ccc(F)c(Cl)c3)cc(N[C@H]3CC[C@H](N)CC3)nc2c1Br [Compound 6] | < 100 µM | 224 to 226 °C (dec.) | – | –
CCc1c(N[C@H]2CC[C@H](N)CC2)nc2ccnn2c1NCc1ccccc1Cl [Compound 38] | < 100 µM | 63 to 65 °C | ++ | –
C=C(C)CNc1c(CC)c(N[C@H]2CC[C@H](N)CC2)nc2ccnn12 [Compound 46] | < 100 µM | 91 to 93 °C | ++ | –
N[C@H]1CC[C@H](Nc2cc(Nc3ccc(F)c(Cl)c3)n3ncc(I)c3n2)CC1 [Compound 49] | < 100 µM | 153 to 155 °C | ++ | –
CCCCOc1ccc(Nc2c(CCCO)c(N[C@H]3CC[C@H](N)CC3)nc3ccnn23)cc1 [Compound 53] | < 100 µM | 116 to 118 °C | +++ | –
CCc1c(N[C@H]2CC[C@H](N)CC2)nc2ccnn2c1Nc1ccc(OC)c(Cl)c1 [Compound 55] | < 100 µM | 189 to 192 °C | +++ | –
CCCCOc1ccc(Nc2c(CC)c(N[C@H]3CC[C@H](N)CC3)nc3ccnn23)cc1 [Compound 56] | < 100 µM | 144 to 148 °C | +++ | –
CCc1c(N[C@H]2CC[C@H](N)CC2)nc2ccnn2c1Nc1ccc(Oc2ccc(C)cc2)cc1 [Compound 57] | < 100 µM | 102 to 104 °C | +++ | –
CCc1c(N[C@H]2CC[C@H](N)CC2)nc2ccnn2c1Nc1ccc(OC)c(OC)c1 [Compound 58] | < 100 µM | 181 to 185 °C | ++ | –
CCc1c(N[C@H]2CC[C@H](N)CC2)nc2ccnn2c1Nc1cccc(I)c1 [Compound 60] | < 100 µM | 199 to 201 °C | +++ | –
CCOc1ccc(Nc2c(C)c(N[C@H]3CC[C@H](N)CC3)nc3c(CO)cnn23)cc1 [Compound 92] | < 100 µM | 101 to 104 °C | – | –
Cc1cccc(-c2ccc(Nc3c(C)c(N[C@H]4CC[C@H](N)CC4)nc4ccnn34)cc2)c1 [Compound 320] | < 100 µM | – | +++ | –
Cc1ccccc1-c1ccc(Nc2c(C)c(N[C@H]3CC[C@H](N)CC3)nc3ccnn23)cc1 [Compound 321] | < 100 µM | – | +++ | –
Cc1c(N[C@H]2CC[C@H](N)CC2)nc2ccnn2c1Nc1ccc(-c2ccccc2C(F)(F)F)cc1 [Compound 323] | < 100 µM | – | ++ | –
Cc1c(N[C@H]2CC[C@H](N)CC2)nc2ccnn2c1Nc1ccc(-c2cccc(C(F)(F)F)c2)cc1 [Compound 324] | < 100 µM | – | +++ | –
CCOc1ccc(Nc2c(C)c(N(C)C3CCCNC3)nc3ccnn23)cc1 (stereo not drawn) [Compound 340] | < 100 µM | – | + | –
CCOc1ccc(Nc2c(C)c(N(CC)C3CCCNC3)nc3ccnn23)cc1 (stereo not drawn) [Compound 341] | < 100 µM | – | + | –
Cc1c(N[C@H]2CC[C@H](N)CC2)nc2ccnn2c1Nc1ccc(-c2ccc(C(F)(F)F)cc2)cc1 [Compound 350] | < 100 µM | – | +++ | –
CCS(=O)(=O)c1ccc(-c2ccc(Nc3c(C)c(N[C@H]4CC[C@H](N)CC4)nc4ccnn34)cc2)cc1 [Compound 351] | < 100 µM | – | +++ | –
Cc1c(N[C@H]2CC[C@H](N)CC2)nc2ccnn2c1Nc1ccc(-c2ccc(CO)cc2)cc1 [Compound 352] | < 100 µM | – | +++ | –
Cc1c(N[C@H]2CC[C@H](N)CC2)nc2ccnn2c1Nc1ccc(-c2cccc(CO)c2)cc1 [Compound 353] | < 100 µM | – | +++ | –
COCc1cccc(-c2ccc(Nc3c(C)c(N[C@H]4CC[C@H](N)CC4)nc4ccnn34)cc2)c1 [Compound 354] | < 100 µM | – | +++ | –
CC(=O)c1ccc(-c2ccc(Nc3c(C)c(N[C@H]4CC[C@H](N)CC4)nc4ccnn34)cc2)s1 [Compound 355] | < 100 µM | – | +++ | –

SMILES | IC50 (CDK-2; [1]) | melting point | activity (efficacy against MAPKAP-K2) (MAPKAP-K2) | IC50 (CDK-2)
CCOc1ccc(-c2ccc(Nc3c(C)c(N[C@H]4CC[C@H](N)CC4)nc4ccnn34)cc2)cc1 [Compound 356] | < 100 µM | – | +++ | –
Cc1csc(-c2ccc(Nc3c(C)c(N[C@H]4CC[C@H](N)CC4)nc4ccnn34)cc2)c1 [Compound 357] | < 100 µM | – | +++ | –
CCOc1ccc(Nc2c(C)c(N[C@H]3CC[C@H](N)CC3)nc3c(C(=O)Nc4ccccn4)cnn23)cc1 [Compound 359] | < 100 µM | – | ++ | –
CCCCC(=O)c1cnn2c(Nc3ccc(OCC)cc3)c(C)c(N[C@H]3CC[C@H](N)CC3)nc12 [Compound 362] | < 100 µM | – | ++ | –
CCOc1ccc(Nc2c(C)c(N[C@@H]3CCNC3)nc3ccnn23)cc1 [Compound 412] | < 100 µM | – | ++ | –
Cc1c(N[C@H]2CC[C@H](N)CC2)nc2c(C(=O)C(F)(F)F)cnn2c1Nc1ccc(I)cc1 [Compound 417, 1-{5-[(trans-4-aminocyclohexyl)amino]-7-[(4-iodophenyl)amino]-6-methyl(pyrazolo[1,5-a]pyrimidin-3-yl)}-2,2,2-trifluoroethan-1-one] | < 100 µM | – | + | –
CCOc1ccc(Nc2c(C)c(N[C@@H]3CCN(Cc4ccccc4)C3)nc3ccnn23)cc1 [Compound 418] | < 100 µM | – | ++ | –
Cc1cscc1-c1ccc(Nc2c(C)c(N[C@H]3CC[C@H](N)CC3)nc3ccnn23)cc1 [Compound 421] | < 100 µM | – | +++ | –
Cc1c(N[C@H]2CC[C@H](N)CC2)nc2ccnn2c1Nc1ccc(-c2cn[nH]c2)cc1 [Compound 422] | < 100 µM | – | +++ | –
Cc1c(N[C@H]2CC[C@H](N)CC2)nc2ccnn2c1Nc1ccc(-c2cc3ccccc3[nH]2)cc1 [Compound 423] | < 100 µM | – | +++ | –
CCOc1ccc(Nc2c(C)c(N[C@H]3CC[C@H](N)CC3)nc3c(NC)cnn23)cc1 [Compound 437] | < 100 µM | – | + | –
Cc1c(N[C@H]2CC[C@H](N)CC2)nc2c(F)cnn2c1Nc1ccc(I)cc1 [Compound 441, {5-[(trans-4-aminocyclohexyl)amino]-3-fluoro-6-methyl(pyrazolo[1,5-a]pyrimidin-7-yl)}(4-iodophenyl)amine] | < 100 µM | – | +++ | –
Cc1c(NC2CCCNC2)nc2ccnn2c1Nc1ccc(-c2cccc(N)c2)cc1 (stereo not drawn) [Compound 444] | < 100 µM | – | +++ | –
Cc1c(NC2CCCNC2)nc2ccnn2c1Nc1ccc(-c2cccc(CO)c2)cc1 (stereo not drawn) [Compound 445] | < 100 µM | – | +++ | –
CNC(=O)c1ccc(Nc2c(C)c(N[C@H]3CC[C@H](N)CC3)nc3ccnn23)cc1 [Compound 460] | < 100 µM | – | +++ | –
Cc1c(N[C@H]2CC[C@H](N)CC2)nc2ccnn2c1Nc1ccc(C(=O)NC2CCCC2)cc1 [Compound 463] | < 100 µM | – | +++ | –
Cc1c(N[C@H]2CC[C@H](N)CC2)nc2ccnn2c1Nc1ccc(C(=O)NCc2ccco2)cc1 [Compound 511] | < 100 µM | – | +++ | –
CCOc1ccc(Nc2c(C)c(N[C@@H]3CN[C@@H](C(=O)O)C3)nc3ccnn23)cc1 [Compound 772] | < 100 µM | – | ++ | –
CC(=O)c1ccc(-c2ccc(Nc3c(C)c(N[C@H]4CCCNC4)nc4ccnn34)cc2)s1 [Compound 773] | – | – | +++ | < 100 µM
Cc1c(N[C@H]2CC[C@H](N)CC2)nc2ccnn2c1Nc1ccc(C(=O)Nc2ccccc2)cc1 [Compound 776] | < 100 µM | – | +++ | –
Cc1c(N[C@H]2CC[C@H](N)CC2)nc2ccnn2c1Nc1ccc(C(=O)c2ccccc2)cc1 [Compound 778] | < 100 µM | – | +++ | –
Cc1c(N[C@H]2CC[C@H](N)CC2)nc2ccnn2c1Nc1ccc(OC(F)(F)F)c(Cl)c1 [Compound 785] | < 100 µM | – | +++ | –
